pIC50: −log10 of the molar value. Read-outs that look alike come from different tables or passages of the source. Values belong to the compound of their own block, whether it stands above or below them.
Assays:
ALK = target: T1, ALK (Homo sapiens, UniProt Q9UM73); assay: Kinase inhibition assay with fluorescein labeled peptide, ALK; type: biochemical
T1 construct: purchased Carna 08-105
Description: (§1) Compounds were diluted to a certain concentration in DMSO with 4-fold gradients. The compound with a certain concentration, an enzyme solution and DMSO were added into a 384-well plate, and the plate was incubated at room temperature for 10 min. […] The plate was subjected to reading.

Ba/F3 ETV6-NTRK3-G623R = target: T2, Ba/F3 ETV6-NTRK3-G623R (Homo sapiens, UniProt Q16288, G623R, cells depend on it); assay: In vitro cell proliferation inhibition (MTT); type: cell-based, murine; conditions: 72 h, read-out: IC50 Ba/F3 ETV6-NTRK3-G623R
T2 construct: fused on or other part: P41212 (Transcription factor ETV6)
Description: (§2) Cells in the logarithmic growth phase were harvested and counted using a […]. The cell suspension with a certain density was pipetted uniformly and seeded into a 96-well plate with each well of 100 μL, and shaken to make the cells uniformly disperse into the wells. 100 μL of compound solution with certain concentration gradient was added into each well, and 3 duplicate wells were set for each concentration. The plate was cultured in a CO2 incubator at 37° C. for 72 h. 20 μL of MTT working solution (5 mg/mL) was added into each well, and the plate was placed at 37° C. for 4 h, and centrifuged at 1000 rpm for 5 min by a plate centrifuge. After 180 μL of culture medium was discarded, the plate was added with 150 μL of DMSO, and mixed well with a microplate shaker, the plate bottom was wiped, and optical density (OD) at 550 nm was detected with a microplate reader.

Ba/F3 ETV6-NTRK2 = target: T3, Ba/F3 ETV6-NTRK2 (Homo sapiens, UniProt Q16620); assay: In vitro cell proliferation inhibition (MTT); type: cell-based, murine; conditions: 72 h, read-out: IC50 Ba/F3 ETV6-NTRK2
T3 construct: fused on or other part: P41212 (Transcription factor ETV6)
Description: as §2

Ba/F3 ETV6-NTRK3-G696A = target: T4, Ba/F3 ETV6-NTRK3-G696A (Homo sapiens, UniProt Q16288, G696A, cells depend on it); assay: In vitro cell proliferation inhibition (MTT); type: cell-based, murine; conditions: 72 h, read-out: IC50 Ba/F3 ETV6-NTRK3-G696A
T4 construct: fused on or other part: P41212 (Transcription factor ETV6)
Description: • Source of 6 kinds of cell lines for the test: KYinno Biotechnology (Beijing) Co., Ltd. • Cell type: murine B cells • Culture medium: RPMI-1640+10% FB S 2. Test Method
as §2

[1] = test system: tropomyosin receptor kinase; conditions: 46 evaluable patients, phase I and phase II clinical trials; cited from earlier work
TRKA = target: T5, TRKA (Homo sapiens, UniProt P04629); assay: HTRF kinase inhibition assay, TRKA; type: biochemical
T5 construct: purchased Bioduro
Description: (§3) The compound to be tested with a certain concentration gradient and an enzyme solution were successively added into a plate (kinase buffer (1× kinase buffer (Cisbio, Cat #62EZBFDD), pH 7.5; 5 mM MgCl2, 1 mM DTT) was added into negative control wells), and the compound plate was centrifuged at 1000 rpm for 30 seconds. The plate was sealed and incubated in a Constant Temperature Incubator at 25° C. for 30 min. A substrate solution containing TK-Sub-biotin (Cisbio, Cat #61TKOBL) and ATP (Sigma, Cat #R0441) was prepared, the substrate solution was added into a 384-well plate, and the plate was centrifuged at 1000 rpm for 30 seconds. The plate was sealed and incubated in a Constant Temperature Incubator at 25° C. for 60 min.
(§4) TK antibody and XL665 were diluted, mixed and added into the assay plate, and the plate was centrifuged at 1000 rpm for 30 seconds. The plate was sealed and incubated in a Constant Temperature incubator Incubator at 25° C. for 60 min. The assay plate was placed on an Envision reader for reading. (HTRF 665/615 ratio: signal value at 665 nm/signal value at 615 nm) Inhibition=(rationegative control well−ratiocompound well)/(rationegative control well−ratioenzyme-free control well)×100% 1.3 Data Analysis and Curve Fitting
(§5) Data were fitted in XLFit excel add-in version 5.4.0.8 to obtain IC50 values.

TRKA(G595R) = target: T6, TRKA(G595R) (Homo sapiens, UniProt P04629, G595R); assay: HTRF kinase inhibition assay, TRKA(G595R); type: biochemical
T6 construct: purchased signalchem
Description: as §3, §4, §5

TRKC = target: T7, TRKC (Homo sapiens, UniProt Q16288); assay: HTRF kinase inhibition assay, TRKC; type: biochemical
T7 construct: purchased Bioduro
Description: as §3, §4, §5

ROS1 = target: T8, ROS1 (Homo sapiens, UniProt P08922); assay: Kinase inhibition assay with fluorescein labeled peptide, ROS1; type: biochemical
T8 construct: purchased Carna 08-163
Description: as §1

Ba/F3 LMNA-NTRK1-G595R = target: T9, Ba/F3 LMNA-NTRK1-G595R (Homo sapiens, UniProt P04629, G595R, cells depend on it); assay: In vitro cell proliferation inhibition (MTT); type: cell-based, murine; conditions: 72 h, read-out: IC50 Ba/F3 LMNA-NTRK1-G595R
T9 construct: fused on or other part: P02545 (Prelamin-A/C)
Description: as §2

Ba/F3 LMNA-NTRK1 = target: T10, Ba/F3 LMNA-NTRK1 (Homo sapiens, UniProt P04629); assay: In vitro cell proliferation inhibition (MTT); type: cell-based, murine; conditions: 72 h, read-out: IC50 Ba/F3 LMNA-NTRK1
T10 construct: fused on or other part: P02545 (Prelamin-A/C)
Description: as §2

Ba/F3 LMNA-NTRK1-G667C = target: T11, Ba/F3 LMNA-NTRK1-G667C (Homo sapiens, UniProt P04629, G667C, cells depend on it); assay: In vitro cell proliferation inhibition (MTT); type: cell-based, murine; conditions: 72 h, read-out: IC50 Ba/F3 LMNA-NTRK1-G667C
T11 construct: fused on or other part: P02545 (Prelamin-A/C)
Description: as §2

[2] = test system: Ba/F3 LMNA-NTRK1-G595R model; conditions: gavage
Description: (§6) The cells in the logarithmic growth phase were collected and re-suspending in serum-free culture medium to make the cell concentration at […] cells/mL. The cell suspension was added with equal volume of Matrigel to make the final cell concentration at 3×10^7-5×10^7 cells/mL. The animal model was established by subcutaneously inoculating 0.1 mL of tumor cell suspension in the axilla of the forelimb of NuNu mice (female, 4-6 weeks, Beijing Vital River Laboratory Animal Technology Co., Ltd.) in an amount of 3×10^6-5×10^6 cells/mouse.
(§7) The maximum and the minimum tumor diameters of the xenografts in nude mice were measured using a vernier caliper, and the tumor volume (TV) was calculated according to the formula: V=½×a×b^2, where a and b represent the maximum and minimum diameters of the tumor mass, respectively. Nude mice with appropriate tumor volume were selected and the mice were evenly divided into 7 groups of 6 mice (100-200 mm^3) by tumor volume using a random number method.
(§8) Tumor diameters were measured twice weekly and tumor volume was calculated. […] (where Ti represents the mean tumor volume of a certain administration group on a certain day; TO represents the mean tumor volume of the administration group at the start of administration, Vi represents the mean tumor volume of the vehicle control group on a certain day (same day as Ti) and V0 represents the mean tumor volume of the vehicle control group at the start of administration); • Tumor inhibition rate: at the end of the test, the animals were executed by removing the cervical vertebrae.

[3] = test system: Ba/F3 LMNA-NTRK1-G667C model; conditions: 100 mg/kg, gavage
Description: as §6, §7, §8

TRKA(G667C) = target: T12, TRKA(G667C) (Homo sapiens, UniProt P04629, G667C); assay: HTRF kinase inhibition assay, TRKA(G667C); type: biochemical
T12 construct: purchased signalchem
Description: as §3, §4, §5

TRKB = target: T13, TRKB (Homo sapiens, UniProt Q16620); assay: HTRF kinase inhibition assay, TRKB; type: biochemical
T13 construct: purchased Bioduro
Description: as §3
(§9) TK antibody and XL665 were diluted, mixed and added into the assay plate, and the plate was centrifuged at 1000 rpm for 30 seconds. The plate was sealed and incubated in a Constant Temperature incubator Incubator at 25° C. for 60 min. The assay plate was placed on an Envision reader for reading.
as §5

TRKC(G623R) = target: T14, TRKC(G623R) (Homo sapiens, UniProt Q16288, G623R); assay: HTRF kinase inhibition assay, TRKC(G623R); type: biochemical
T14 construct: purchased Bioduro
Description: as §3, §4, §5

TRKC(G696A) = target: T15, TRKC(G696A) (Homo sapiens, UniProt Q16288, G696A); assay: HTRF kinase inhibition assay, TRKC(G696A); type: biochemical
T15 construct: purchased Bioduro
Description: as §3, §9, §5

pIC50 (ALK): < 6.00 | GI50 (Ba/F3 ETV6-NTRK3-G623R): 376 nM | GI50 (Ba/F3 ETV6-NTRK2): 15.1 nM | GI50 (Ba/F3 ETV6-NTRK3-G696A): 35.8 nM
SMILES: O=C(Nc1cnn2ccc(N3CCC[C@@H]3c3cc(F)ccc3F)nc12)N1CC[C@H](O)C1 [LOXO-101, Larotrectinib]
Overall Response Rate (ORR) [1]: 78%

pIC50 (TRKA): 9.49 | pIC50 (TRKA(G595R)): > 9.77 | pIC50 (TRKC): 8.98 | pIC50 (ROS1): 9.40 | pIC50 (ALK): 7.51 | GI50 (Ba/F3 LMNA-NTRK1-G595R): 0.095 nM | GI50 (Ba/F3 ETV6-NTRK3-G623R): 0.277 nM | GI50 (Ba/F3 ETV6-NTRK2): 0.977 nM | GI50 (Ba/F3 LMNA-NTRK1): 0.526 nM | GI50 (Ba/F3 LMNA-NTRK1-G667C): 0.536 nM | GI50 (Ba/F3 ETV6-NTRK3-G696A): 0.693 nM | Rate of weight gain (%) ([2]; 50 mg/kg): 13.47% | Rate of weight gain (%) ([2]; 100 mg/kg): 4.36% | Rate of weight gain (%) [3]: 5.75% | pIC50 (TRKA(G667C)): 9.24 | pIC50 (TRKB): 8.94 | pIC50 (TRKC(G623R)): 9.09 | pIC50 (TRKC(G696A)): 9.25
SMILES: O=C(Nc1ccc(C2CCN(C(=O)CO)CC2)cc1)c1cnn2ccc(N3C[C@@H](F)C[C@@H]3c3cc(F)ccc3F)nc12 [Compound 10, 5-((2R,4S)-2-(2,5-difluorophenyl)-4-fluoropyrrolidin-1-yl)-N-(4-(1-(2-hydroxyacetyl)piperidin-4-yl)phenyl)pyrazolo[1,5-a]pyrimidine-3-carboxamide]
Number of animals (Survival/total) ([2]; 50 mg/kg): (6/6) | TGI (%) ([2]; 50 mg/kg): 134.7% | Tumor volume (mm^3) ([2]; 50 mg/kg): 20.0 ± 12.6 mm^3 | Tumor weight ([2]; 50 mg/kg): 0.01 ± 0.01 g | Tumor weight inhibition rate (%) ([2]; 50 mg/kg): 98.09% | Number of animals (Survival/total) ([2]; 100 mg/kg): (6/6) | TGI (%) ([2]; 100 mg/kg): 132.5% | Tumor volume (mm^3) ([2]; 100 mg/kg): 25.8 ± 8.3 mm^3 | Tumor weight ([2]; 100 mg/kg): 0.02 ± 0.01 g | Tumor weight inhibition rate (%) ([2]; 100 mg/kg): 96.75% | Number of animals (Survival/total) [3]: (6/6) | TGI (%) [3]: 111.6% | Tumor volume (mm^3) [3]: 91.6 ± 19.5 mm^3 | Tumor weight [3]: 0.12 ± 0.02 g | Tumor weight inhibition rate (%) [3]: 77.80%

Reference: US12643906B2, “Fused aza-heterocyclic amide compound and use thereof” (CSPC ZHONGQI PHARMACEUTICAL TECHNOLOGY (SHIJIAZHUANG) CO., …, priority 2020, dated 2026)
